Laboratory results from patent US20120015925A1, “NOVEL BENZOTHIAZEPINE AND BENZOTHIEPINE COMPOUNDS” (ASAHI KASEI PHARMA CORPORATION, priority 2004, published 2012).

Assays:
rats dosed cholic acid = test: Lowering effect on bile acid concentrations in portal vein blood in rats dosed cholic acid; format: in vivo, rat
Protocol: In the present Test Example, a lowering effect on bile acid concentrations in portal vein blood in rats dosed cholic acid was evaluated according to the method described in Jpn. Pharmacol. Ther., Vol. 24 Supplement, 1996, 103(S-577)-110(S-584).
That is, SD (IGS) strain male rats at 7 to 9 weeks of age were fasted one day before the administration date. […] The blood was collected from the portal vein 2 hours after the forced oral administration, and a total bile acid value in serum was measured to examine the effect of the test compound (n=6). As a control, another group (n=6) merely received cholic acid (200 mg/kg), to which the same procedure was applied. The cholic acid value was measured using the commercially available kit (brand name: Total Bile Acid-Test Wako, supplied form Wako Pure Chemical Industries). Defining the value in the control group to which no test compound had been administered as being 100%, a reduction rate (%) of the bile acid value when a certain amount of the test compound had been administered was calculated.

Caco-2 cell = test: Gastrointestinal toxicity: cytotoxicity against Caco-2 cell (LDH activity); format: cell-based, human; settings: 2 hours, LDH activity in medium relative to cell lysis agent = 100%
Protocol: That is, 10,000 cells/well of Caco-2 cells (purchased from ATCC) were seeded in a 96-well plate [MEM-E medium, 10% FBS (Fetal Bovine Serum), 1% NEAA (Non Essential Amino Acid) solution, supplied from Gibco]. After culturing for 48 hours, the test compound diluted with the medium was added to each well. After 2 hours, 50 μL of the medium was collected, and an LDH activity in the medium was measured using an LDH activity measurement kit (CytoTox96 Non-Radioactive Cytotoxicity Assay, supplied from Promega). Defining the LDH activity of the Caco-2 cells treated with a cell lysis agent as being 100%, the relative activity was calculated as a index of the cytotoxicity.

[1] = test system: rats fed cholesterol food; test: Blood cholesterol lowering effect in rats fed cholesterol food; format: in vivo, rat; settings: 0.3 mg/kg per administration, oral, twice per day; SD (IGS) male rats; serum 3 hours after final administration
Protocol: In the present Test Example, a blood cholesterol lowering effect on rats fed cholesterol food was evaluated according to the method described in J. Lipid Res., 1995, 36, 1098-1105.
That is, the food containing 0.4% cholesterol and 0.5% bile acid was given to SD (IGS) strain male rats at 7 to 9 weeks of age for 5 days in advance of the test date, to increase blood cholesterol levels. The rats in which the blood cholesterol level had been obviously elevated from the level before loading the cholesterol food were selected as the subjects in the test. Colestimide (brand name: Cholebine 70% granules, supplied from Mitsubishi Tokyo Pharmaceutical Inc.) which is an anion exchange resin drug was suspended in distilled water, and the test compound was dissolved or suspended in distilled water. They were orally administered forcibly twice per day everyday from the starting date (each n=8). The blood was collected from jugular vein 3 hours after the drug administration on the final day of the experiment, and the cholesterol level in serum was measured to examine the effect of the test compound. As a control, another group (n=8) was merely fed cholesterol food, to which distilled water (1 mL/kg) was administered and the same procedure was applied. The total cholesterol value and the HDL cholesterol value were measured using commercially available kits. The value obtained by subtracting the HDL cholesterol value from the total cholesterol value was regarded as an LDL+VLDL cholesterol value.

human IBAT = target: T1, human IBAT (Homo sapiens, UniProt Q12908); test: In vitro assay using Cos 7 cells, transiently expressed human IBAT; format: cell-based; settings: 37° C., 60 minutes
T1 sequence (Q12908 1-348): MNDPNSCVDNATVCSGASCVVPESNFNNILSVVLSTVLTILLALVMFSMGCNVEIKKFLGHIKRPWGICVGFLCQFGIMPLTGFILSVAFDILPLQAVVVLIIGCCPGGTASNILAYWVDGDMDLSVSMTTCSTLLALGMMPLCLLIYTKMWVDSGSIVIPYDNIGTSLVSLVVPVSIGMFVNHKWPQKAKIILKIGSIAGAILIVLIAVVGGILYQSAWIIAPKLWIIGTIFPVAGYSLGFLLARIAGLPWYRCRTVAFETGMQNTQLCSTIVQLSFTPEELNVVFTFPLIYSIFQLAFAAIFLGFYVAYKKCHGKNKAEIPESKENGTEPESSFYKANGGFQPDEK
Method in brief: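 Cos 7 cells transfected with human or rat IBAT cDNA were assayed one day later in Hanks buffer with 25 mM glucose and 10 mM HEPES (pH 7.4) containing compound. [^3H]-taurocholate (8 μM final) uptake ran 60 min at 37° C. Cells were washed with 1 mM taurocholate, lysed in NaOH, and counted by liquid scintillation.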

rat IBAT = target: T2, rat IBAT (Rattus norvegicus, UniProt Q62633); test: In vitro assay using Cos 7 cells, transiently expressed rat IBAT; format: cell-based; settings: [3H]-taurocholate 8 μM uptake, 37° C., 60 minutes
T2 sequence (Q62633 1-348): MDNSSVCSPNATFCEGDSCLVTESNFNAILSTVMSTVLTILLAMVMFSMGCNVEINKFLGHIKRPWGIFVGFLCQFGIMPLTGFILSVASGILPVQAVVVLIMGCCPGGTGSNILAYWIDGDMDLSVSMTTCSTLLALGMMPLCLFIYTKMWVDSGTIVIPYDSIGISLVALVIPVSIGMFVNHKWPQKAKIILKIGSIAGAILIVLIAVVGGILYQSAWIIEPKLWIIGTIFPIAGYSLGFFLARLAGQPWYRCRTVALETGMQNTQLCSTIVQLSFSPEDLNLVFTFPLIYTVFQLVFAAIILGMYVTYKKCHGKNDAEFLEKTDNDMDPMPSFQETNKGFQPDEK
Protocol: In the present Test Example, an in vitro assay of compounds using Cos 7 cells as to inhibitory activity on transiently expressed human IBAT or rat IBAT transporter was performed according to the method described in Am. J. Physiol., 274, G157-169.
That is, […] cells/well of Cos 7 cells were seeded in a 24-well plate, and after one day, the cells were transfected with 0.3 μg/well of cDNA of human IBAT or rat IBAT using FuGENE6 (supplied from Roche). After culturing for one day after the transfection, the cells were washed once with the assay buffer, i.e., Hanks buffer containing 25 mM glucose and 10 mM HEPES (pH 7.4). The assay buffer was then replaced with the assay buffer containing the test compound. [^3H]-Taurocholate at a final concentration of 8 μM was added thereto and incubated at 37° C. for 60 minutes so that [^3H]-taurocholate was taken into Cos 7 cells by the action of human IBAT or rat IBAT. The cells were washed twice with the assay buffer containing 1 mM taurocholate, and subsequently lysed with 0.2 M NaOH to stop the reaction. The cell lysate was added to 4 mL of liquid scintillation cocktail, which was then thoroughly vortexed. Then the radioactivity was measured using the liquid scintillation counter.

[2] = 0.1 mg/kg oral with cholic acid 200 mg/kg, portal vein serum total bile acid 2 hours after, control = 100%, surfactant HCO-60 (##)
[3] = 0.1 mg/kg oral, surfactant Tween 20 0.05%, cholic acid 200 mg/kg, portal vein blood 2 hours after administration
[4] = 0.1 mg/kg oral, surfactant HCO-60 0.1%, cholic acid 200 mg/kg, portal vein blood 2 hours after administration

| SMILES | BILE ACID REDUCTION RATE (%) IN RAT MODEL WITH CHOLIC ACID LOADING (rats dosed cholic acid; 0.3 mg/kg oral with cholic acid 200 mg/kg, portal vein serum total bile acid 2 hours after, control = 100%, surfactant HCO-60 (##)) [%] | CELL TOXICITY AGAINST Caco2 3 μM (Caco-2 cell) [%] | CELL TOXICITY AGAINST Caco2 10 μM (Caco-2 cell) [%] | CELL TOXICITY AGAINST Caco2 30 μM (Caco-2 cell) [%] | LDL + VLDL REDUCTION RATE (%) IN CHOLESTEROL FED RAT MODEL (THERAPEUTIC MODEL) [1] [%] | BILE ACID REDUCTION RATE (%) IN RAT MODEL WITH CHOLIC ACID LOADING (rats dosed cholic acid; [2]) [%] | IC50 (human IBAT; [3H]-taurocholate 8 μM) [nM] | BILE ACID REDUCTION RATE (%) IN RAT MODEL WITH CHOLIC ACID LOADING (rats dosed cholic acid; [3]) [%] | IC50 (human IBAT; [3H]-taurocholate 8 μM uptake) [nM] | IC50 (rat IBAT) [nM] | BILE ACID REDUCTION RATE (%) IN RAT MODEL WITH CHOLIC ACID LOADING (rats dosed cholic acid; [4]) [%] |
| --- | --- | --- | --- | --- | --- | --- | --- | --- | --- | --- | --- |
| CCCCC1(CCCC)CS(=O)(=O)c2ccc(N(C)C)cc2C(c2cccc(NC(=S)Nc3ccc(C[n+]4cccc(CC#N)c4)cc3)c2)N1.[Br-] (centres unmarked) [EXAMPLE 3759] | 36 | <1 | <1 | <1 | – | – | – | – | – | – | – |
| CCCCC1(CCCC)CS(=O)(=O)c2ccc(N(C)C)cc2C(c2cccc(NC(=S)Nc3ccc(C[n+]4ccc(C(C)(C)C)cc4)c(C)c3)c2)N1.[Br-] (centres unmarked) [EXAMPLE P365] | – | – | – | – | 44 | 40 | 47 | – | – | – | – |
| CCCCC1(CCCC)CS(=O)(=O)c2ccc(N(C)C)cc2C(c2cccc(NC(=S)CCCCC[N+](C)(C)Cc3ccccc3)c2)N1.[Br-] (centres unmarked) [EXAMPLE 3835] | – | <1 | <1 | <1 | – | – | – | 23 | 43 | – | – |
| CCCCC1(CCCC)CS(=O)(=O)c2ccc(N(C)C)cc2C(c2cccc(NC(=S)Nc3ccc(C[n+]4ccc5ccccc5c4)cc3)c2)N1.[Br-] (centres unmarked) [EXAMPLE 3783] | – | <1 | <1 | <1 | – | 16 | – | – | 48 | – | – |
| CCCCC1(CCCC)CS(=O)(=O)c2ccc(N(C)C)cc2C(c2cccc(NC(=S)NCCC[N+](C)(C)Cc3ccccc3)c2)N1.[Br-] (centres unmarked) [EXAMPLE 425] | – | – | – | – | – | – | – | 21 | 170 | – | – |
| CCCCC1(CCCC)CS(=O)(=O)c2ccc(N(C)C)cc2C(c2cccc(NC(=S)Nc3ccc(C[N+](C)(C)CCCC)cc3)c2)N1.[Br-] (racemic) [EXAMPLE 3409] | – | <1 | <1 | <1 | – | 28 | – | – | 45 | – | – |
| CCCCC1(CCCC)CS(=O)(=O)c2ccc(N(C)C)cc2C(c2cccc(NC(=S)Nc3ccc(C[N+]45CCC(c6ccccc6)(CC4)CC5)c(F)c3)c2)N1.[Br-] (centres unmarked) [EXAMPLE P343] | – | – | <1 | <1 | – | – | – | – | 16 | 5.5 | – |
| CCCCC1(CCCC)CS(=O)(=O)c2ccc(N(C)C)cc2C(c2cccc(NC(=S)Nc3ccc(C[N+]4(Cc5ccccc5)CCC(CCO)CC4)cc3)c2)N1.[Br-] (centres unmarked) [EXAMPLE 3608] | – | <1 | <1 | <1 | – | – | – | – | 59 | – | 43 |
| CCCCC1(CCCC)CS(=O)(=O)c2ccc(N(C)C)cc2C(c2cccc(NC(=S)CCCCCCC[N+]34CCC(CC3)CC4)c2)N1.[Br-] (centres unmarked) [EXAMPLE 3932] | – | – | – | – | – | – | – | 30 | 36 | 9 | – |
| CCCCC1(CCCC)CS(=O)(=O)c2ccc(N(C)C)cc2C(c2cccc(NC(=S)CCCCC[N+]34CCC(c5ccccc5)(CC3)CC4)c2)N1.[Br-] (centres unmarked) [EXAMPLE 3853] | – | <1 | <1 | <1 | – | – | – | – | 28 | 9 | 36 |
| CCCCC1(CCCC)CS(=O)(=O)c2ccc(N(C)C)cc2C(c2cccc(NC(=S)Nc3ccc(C[n+]4ccc(C(C)(C)C)cc4)cc3F)c2)N1.[Br-] (centres unmarked) [EXAMPLE P366] | – | – | – | – | 31 | 45 | – | – | 25 | – | – |
| CCCCC1(CCCC)CS(=O)(=O)c2ccc(N(C)C)cc2C(c2cccc(NC(=S)Nc3ccc(C[n+]4ccc(CC)cc4)cc3)c2)N1.[Br-] (centres unmarked) [EXAMPLE 3710] | – | <1 | <1 | <1 | – | 20 | – | – | 52 | – | – |
| CCCCC1(CCCC)CS(=O)(=O)c2ccc(N(C)C)cc2C(c2cccc(NC(=S)Nc3ccc(C[N+]45CCC(c6ccccc6)(CC4)CC5)cc3Br)c2)N1.[Br-] (centres unmarked) [EXAMPLE P346] | – | – | <1 | <1 | – | – | – | – | 19 | 6 | – |
| CCCCC1(CCCC)CS(=O)(=O)c2ccc(N(C)C)cc2C(c2cccc(NC(=S)Nc3ccc(C[N+]45CCC(CC4)CC5)cc3)c2)N1.[Br-] (racemic) [EXAMPLE 3695] | – | <1 | <1 | <1 | – | – | – | – | 37 | 5 | 23 |
| CCCCC1(CCCC)CS(=O)(=O)c2ccc(N(C)C)cc2C(c2cccc(NC(=S)Nc3ccc(C[N+]4(Cc5ccccc5)CCCC(CO)C4)cc3)c2)N1.[Br-] (centres unmarked) [EXAMPLE 3607] | – | <1 | <1 | <1 | – | – | – | – | 41 | – | 36 |
